Laboratory results as given in paper PMC8466300, “Investigating the Central Nervous System Disposition of Actinomycin D: Implementation and Evaluation of Cerebral Microdialysis and Brain Tissue Measurements Supported by UPLC-MS/MS Quantification” (Pharmaceutics, 2021).

Experiment: Reverse-phase UPLC retention relative to actinomycin D
Type: physicochemical
Settings: Peptide BEH C18 300 Å, gradient 40–100% ACN + 0.1% FA, 60 °C
Method: The injected sample volume was 20 µL.
For chromatography optimization we tested reverse phase columns (C18 and C4) due to actinomycin D´s high lipophilicity. We used reverse phase material with a large pore width of 300 Å because large pore widths usually foster optimal mass transfer kinetics for macromolecules. Chromatographic peak shape and separation performed better on the C18 column. In accordance with the high lipophilicity of actinomycin D, a gradient from 40–100% eluent B was found optimal and yielded peaks with a width at baseline of 6 s (Figure 2).

Row | Substance | shift in reverse-phase retention relative to actinomycin D
1 | 7-amino actinomycin D | large hydrophilic shift in retention time
2 | Actinomycin C | only a minimal lipophilic shift
